Measurements from article PMC12518634, “The noncanonical function of liver-type phosphofructokinase potentiates the efficacy of HDAC inhibitors in cancer” (Signal Transduction and Targeted Therapy, 2025).
Where a name gives a salt, the structure may show the parent alone. Read-outs that look alike come from different tables or passages of the source.

How the values were obtained:
[1] = system: 783C-6; assay: High-throughput drug screen, CellTiter-Glo viability, 72 h; format: cell-based, human; set-up: AUC: scale not given here; details: for AUC: area under the dose-response curve; for EC50: 72 h, read-out: EC50
Procedure, shortened: (§1)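 Cholangiocarcinoma cells were seeded at 3000/well in 384-well plates and dosed after 24 h. Drugs were tested at 10, 1, 0.1, 0.01 and 0.001 μM in duplicate for 72 h, with viability read by CellTiter-Glo luminescence.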

[2] = system: 1405R3; assay: as above; format: cell-based, human; set-up: AUC: scale not given here; details: 1405R3 DSRT analysis; for AUC: area under the dose-response curve; for MIN: lower asymptote of fitted dose-response curve; for SLOPE: slope of fitted dose-response curve; for EC50: CellTiter-Glo viability, 72 h, fitted dose-response curve, Min.Conc.tested 1, Max.Conc.tested 10000, GI50, read-out: EC50
Procedure, shortened: as §1

[3] = 783C-6 DSRT analysis, DSS calculated from the dose-response curve
[4] = 783C-6 DSRT analysis, MIN of the fitted dose-response curve
[5] = 783C-6 DSRT analysis, slope of the fitted dose-response curve
[6] = 783C-6 cells, DSS of DSRT analysis
[7] = 783C-6 cells, minimum of dose-response curve
[8] = 783C-6 cells, slope of fitted dose-response curve
[9] = 783C-6 cells, DSRT analysis, CellTiter-Glo viability, concentrations tested 1 to 10000 (unit inferred), GI50

SMILES | DSS [1, 3] | MIN [1, 4] | AUC ([1]; 783C-6 DSRT analysis) | DSS ([2]; DSS) | AUC [2] | MIN [2] | EC50 ([1]; Homo sapiens) [nM] | SLOPE [1, 5] | SLOPE [2] | DSS [1, 6] | AUC ([1]; 783C-6 cells) | MIN [1, 7] | DSS ([2]; drug sensitivity score) | SLOPE [1, 8] | EC50 ([2]; Homo sapiens) [nM] | EC50 [1, 9] [nM] | EC50 [2] [nM]
COc1cc2nccc(Oc3ccc(NC(=O)NC4CC4)c(Cl)c3)c2cc1C(N)=O [Lenvatinib] | 0 | 93.6 | 8.6 | 0 | 0.1 | 99.3 |  |  |  |  |  |  |  |  |  |  | 
Cc1ccc(F)c(NC(=O)Nc2ccc(-c3cccc4[nH]nc(N)c34)cc2)c1 [Linifanib] | 3.9 | 68.4 | 53 | 0 | 3.9 | 97.4 | 255 |  |  |  |  |  |  |  |  |  | 
Cn1c(/C=C/C(=O)NO)ccc1/C=C/C(=O)c1cccc(F)c1 [MC1568] | 0 | 98.4 | 0.2 | 0 | 2.6 | 94.6 |  | -2.5 | -0.6 |  |  |  |  |  |  |  | 
CCCCCCCc1ccc(CCc2cccc(O)c2C(=O)O)cc1 [MG149] | 0 | 87.6 | 3.7 | 0 | 18.5 | 85.7 |  | -1 | -0.2 |  |  |  |  |  |  |  | 
O=C(O)[C@]1(Cc2cccc(Nc3nccs3)n2)CC[C@@H](Oc2cccc(Cl)c2F)CC1 [MK-5108] | 4.3 | 74.1 | 61.3 | 0 | 0.5 | 98.2 | 22.8 |  |  |  |  |  |  |  |  |  | 
O=C(O)c1ccc(Nc2ncc3c(n2)-c2ccc(Cl)cc2C(c2c(F)cccc2F)=NC3)cc1 [MLN8054] | 0 | 70.8 | 8.8 | 0 | 6.8 | 90.2 |  |  |  |  |  |  |  |  |  |  | 
CCC(CC)(NC(=O)C(C)C)C(=O)N[C@@H](CCCN=C(N)N)C(=O)NC1(C(=O)NC(c2ccc(F)cc2)c2ccc(F)cc2)CCCC1 [MM-102] | 0 | 88.1 | 18.6 | 0 | 18.6 | 88.1 |  | -0.1 | -0.1 |  |  |  |  |  |  |  | 
CC(C)Oc1ccc(-c2c[nH]cc2CN(C)CCN)cc1 [MS023] |  |  |  |  | 7.3 | 75.6 |  |  |  | 3.9 | 57.8 | 80.8 | 0 |  |  |  | 
CNCCN1CCC(OCc2ccccc2)CC1 [MS049] |  |  |  |  | 20.8 | 86.6 |  |  | -0.1 | 0 | 4.9 | 83.6 | 0 | -1 |  |  | 
Nc1ccccc1NC(=O)c1ccc(CNc2nccc(-c3cccnc3)n2)cc1 [Mocetinostat] |  |  |  |  | 100.5 | 1.1 | 917 |  |  | 11.6 | 98.8 | 4.8 | 11.8 |  | 965 |  | 
Cc1cc(-c2ccc3nc(C4CCOCC4)n(CCOC(F)(F)F)c3c2)cn(C)c1=O [NEO2734] |  |  |  |  | 130.5 | 8.1 |  |  | -0.9 | 6.1 | 72.8 | 64.2 | 14.3 | -0.3 |  | 87.4 | 407
CCCCN(Cc1ccc(C(=O)NO)cc1)C(=O)Nc1ccccc1 [Nexturastat A] |  |  |  |  | 0.7 | 93.8 |  |  |  | 0 | 4.3 | 85.6 | 0 |  |  |  | 
COC(=O)c1ccc2c(c1)NC(=O)/C2=C(\Nc1ccc(N(C)C(=O)CN2CCN(C)CC2)cc1)c1ccccc1 [Nintedanib] |  |  |  |  | 13.7 | 84 | 2290 |  |  | 1.6 | 17.9 | 72.2 | 0.8 |  |  |  | 
N[C@H]1CC[C@H](N[C@@H]2C[C@H]2c2ccccc2)CC1 [ORY-1001] |  |  |  |  | 0.1 | 100 |  |  |  | 0 | 14.3 | 92.7 | 0 |  |  |  | 
O=C(Nc1ccc(O)c(C(=O)O)c1)c1cccc(NC(=O)c2ccco2)c1 [OSS_128167] |  |  |  |  | 8.4 | 94.6 |  |  | -0.1 | 0 | 7.3 | 92.5 | 0 | -0.3 |  |  | 
Cc1sc2c(c1C)C(c1ccc(Cl)cc1)=N[C@@H](CC(=O)Nc1ccc(O)cc1)c1nnc(C)n1-2 [OTX015] |  |  |  |  | 90.2 | 24.3 |  |  |  | 0 | 6.1 | 90.3 | 10.4 |  | 649 |  | 
O=C(O)C(=O)O.[NH-][C@@H]1CCCC[C@H]1[NH-].[Pt+2] [Oxaliplatin] |  |  |  |  | 20.5 | 78.3 |  |  | -2.2 | 3.8 | 41.2 | 65.7 | 1.7 | -1.1 |  | 659 | 
COc1ccc(Cn2ccc3ccc(C(=O)NO)cc32)cc1 [PCI-34051] |  |  |  |  | 0.1 | 100 |  |  | -0.1 | 0 | 2 | 95.4 | 0 | -0.7 |  |  | 
COc1ccccc1S(=O)(=O)Nc1ccc2c(c1)CN(C)C(=O)N2 [PFI-1] |  |  |  |  | 38.8 | 55.4 |  |  | -2.5 | 0 | 7.2 | 94.7 | 4.4 | -2.5 |  |  | 1350
O=C([C@@H](Cc1cccc(C(F)(F)F)c1)NS(=O)(=O)c1cc(F)c2c(c1)CCNC2)N1CCCC1 [PFI-2 HCl] |  |  |  |  | 15.4 | 84.5 |  |  |  | 0 | 2.2 | 95.2 | 0 |  |  |  | 
O=C(NNc1ccccn1)c1ccccn1 [PFI-90] |  |  |  |  | 8.1 | 93.5 |  |  | -0.2 | 0 | 10.9 | 92.2 | 0 | -2.5 |  |  | 
CC(=O)O[C@H]1C(=O)[C@@]2(C)[C@H]([C@H](OC(=O)c3ccccc3)[C@]3(O)C[C@H](OC(=O)[C@H](O)[C@@H](NC(=O)c4ccccc4)c4ccccc4)C(C)=C1C3(C)C)[C@]1(OC(C)=O)CO[C@@H]1C[C@@H]2O [Paclitaxel] |  |  |  |  | 129.3 | 37.8 | 1.9 |  |  | 21.1 | 167.6 | 52.1 | 14.6 |  | 82.1 |  | 
CCN1C(=O)N(c2c(F)c(OC)cc(OC)c2F)Cc2cnc3[nH]c(CN4CCOCC4)cc3c21 [Pemigatinib] |  |  |  |  | 7 | 76.8 |  |  |  | 4.8 | 62.9 | 78.8 | 0 |  |  |  | 
Cc1ccc(C(=O)Nc2ccc(CN3CCN(C)CC3)c(C(F)(F)F)c2)cc1C#Cc1cnc2cccnn12 [Ponatinib] |  |  |  |  | 16.5 | 87 | 155 |  |  | 7 | 59.9 | 66.9 | 0.6 |  |  |  | 
